Measured values taken from ChEMBL document CHEMBL1201862, “PubChem BioAssay data set” (2004).
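The compound was tested at five concentrations on cells cultured in 96-well plates, with a 48-hour exposure period. At the GI50, growth is halved.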 Active and inactive are the calls of the source. No stated cut-off is given here; in the data, active = GI50 up to about 1.1 µM and inactive = higher.

Tests used:
Experiment in all cases: inhibition of tumour cell growth, NCI panel, 48 h
[1] = system: SNB-19
[2] = system: UACC-62
[3] = system: MDA-MB-231
[4] = system: MDA-N
[5] = system: HOP-92
[6] = system: KM12
[7] = system: MOLT-4
[8] = system: SF-295
[9] = system: OVCAR-4
[10] = system: A498
[11] = system: DU-145
[12] = system: K562
[13] = system: CCRF-CEM
[14] = system: MDA-MB-435
[15] = system: PC-3
[16] = system: BT-549
[17] = system: OVCAR-3
[18] = system: SW-620
[19] = system: NCI-H23
[20] = system: SF-268

Q: Which GI50 [1] does the source give for O=C(/C=C/c1cc(O)c(O)cc1O)OCCc1ccccc1 here?
A: Its GI50 is 61.7 µM (inactive).

Q: And the GI50 [2]?
A: Its GI50 is 17.9 µM (inactive).

Q: What about the GI50 [3] of the same molecule?
A: Its GI50 is 23.5 µM (inactive).

Q: What about the GI50 [4] of the same molecule?
A: The GI50 was 13.2 µM (inactive).

Q: And the GI50 [5]?
A: The GI50 was 7.6 µM (inactive).

Q: What about the GI50 [6] of the same molecule?
A: The GI50 was 62.4 µM (inactive).

Q: What about the GI50 [7] of the same molecule?
A: The GI50 was 2.87 µM (inactive).

Q: And the GI50 [8]?
A: The GI50 was 29.4 µM (inactive).

Q: What about the GI50 [9] of the same molecule?
A: Its GI50 is 17.7 µM (inactive).

Q: And the GI50 [10]?
A: Its GI50 is 21.2 µM (inactive).

Q: What about the GI50 [11] of the same molecule?
A: Its GI50 is > 52.6 µM (inactive).

Q: And the GI50 [12]?
A: Its GI50 is 2.28 µM (inactive).

Q: What about the GI50 [13] of the same molecule?
A: The GI50 was 2.07 µM (inactive).

Q: And the GI50 [14]?
A: Its GI50 is 20.2 µM (inactive).

Q: And the GI50 [15]?
A: The GI50 was 17.3 µM (inactive).

Q: And the GI50 [16]?
A: Its GI50 is 25.7 µM (inactive).

Q: What about the GI50 [17] of the same molecule?
A: The GI50 was 10.3 µM (inactive).

Q: And the GI50 [18]?
A: The GI50 was 5.19 µM (inactive).

Q: And the GI50 [19]?
A: The GI50 was 24.2 µM (inactive).

Q: What about the GI50 [20] of the same molecule?
A: Its GI50 is 19 µM (inactive).

Q: CN(C)S(=O)(=O)/N=C/c1cccc(/C=N/S(=O)(=O)N(C)C)c1 was tested. Which GI50 [1] did it give?
A: The GI50 was > 100 µM (inactive).

Q: What about the GI50 [2] of the same molecule?
A: The GI50 was > 100 µM (inactive).

Q: And the GI50 [3]?
A: The GI50 was > 100 µM (inactive).

Q: And the GI50 [4]?
A: The GI50 was 31 µM (inactive).

Q: What about the GI50 [5] of the same molecule?
A: Its GI50 is 32.1 µM (inactive).

Q: What about the GI50 [6] of the same molecule?
A: The GI50 was > 100 µM (inactive).

Q: What about the GI50 [7] of the same molecule?
A: Its GI50 is > 100 µM (inactive).

Q: And the GI50 [8]?
A: The GI50 was 0.728 µM (active).

Q: What about the GI50 [9] of the same molecule?
A: Its GI50 is > 100 µM (inactive).

Q: And the GI50 [10]?
A: Its GI50 is > 100 µM (inactive).

Q: What about the GI50 [11] of the same molecule?
A: Its GI50 is > 100 µM (inactive).

Q: What about the GI50 [12] of the same molecule?
A: The GI50 was 52.4 µM (inactive).

Q: And the GI50 [13]?
A: Its GI50 is 74.8 µM (inactive).

Q: What about the GI50 [14] of the same molecule?
A: The GI50 was 44.8 µM (inactive).

Q: What about the GI50 [15] of the same molecule?
A: Its GI50 is > 100 µM (inactive).

Q: And the GI50 [16]?
A: The GI50 was 38.1 µM (inactive).

Q: And the GI50 [17]?
A: The GI50 was > 100 µM (inactive).

Q: What about the GI50 [18] of the same molecule?
A: The GI50 was 64 µM (inactive).

Q: And the GI50 [19]?
A: The GI50 was > 100 µM (inactive).

Q: What about the GI50 [20] of the same molecule?
A: Its GI50 is 61.5 µM (inactive).

Q: How did the GI50 [1] turn out when C=C1CC(C)(COc2cc(=O)oc3ccccc23)OC1=O (stereo not given) was run?
A: Its GI50 is 15.8 µM (inactive).

Q: What about the GI50 [2] of the same molecule?
A: The GI50 was 2.48 µM (inactive).

Q: And the GI50 [3]?
A: The GI50 was 7.38 µM (inactive).

Q: What about the GI50 [4] of the same molecule?
A: The GI50 was 4.13 µM (inactive).

Q: And the GI50 [5]?
A: Its GI50 is 1.2 µM (inactive).

Q: What about the GI50 [6] of the same molecule?
A: Its GI50 is 8.02 µM (inactive).

Q: What about the GI50 [7] of the same molecule?
A: The GI50 was 1.94 µM (inactive).

Q: And the GI50 [8]?
A: Its GI50 is 12.7 µM (inactive).

Q: What about the GI50 [9] of the same molecule?
A: The GI50 was 3.87 µM (inactive).

Q: What about the GI50 [10] of the same molecule?
A: The GI50 was 2.91 µM (inactive).

Q: What about the GI50 [11] of the same molecule?
A: The GI50 was 6.97 µM (inactive).

Q: What about the GI50 [12] of the same molecule?
A: Its GI50 is 2 µM (inactive).

Q: And the GI50 [13]?
A: The GI50 was 1.86 µM (inactive).

Q: And the GI50 [14]?
A: The GI50 was 5.53 µM (inactive).

Q: And the GI50 [15]?
A: The GI50 was 4.11 µM (inactive).

Q: What about the GI50 [16] of the same molecule?
A: Its GI50 is 1.73 µM (inactive).

Q: And the GI50 [17]?
A: The GI50 was 3.96 µM (inactive).

Q: And the GI50 [18]?
A: The GI50 was 2.57 µM (inactive).

Q: What about the GI50 [19] of the same molecule?
A: The GI50 was 3.87 µM (inactive).

Q: What about the GI50 [20] of the same molecule?
A: Its GI50 is 14.9 µM (inactive).

Q: For N#CC12C(=O)N3C(=NC(c4ccccc4)NC3c3ccccc3)C1(C#N)C(c1ccccc1)NC1=C2CCCC1 (stereo not given), which GI50 [1] is on record?
A: Its GI50 is > 100 µM (inactive).

Q: And the GI50 [2]?
A: The GI50 was > 100 µM (inactive).

Q: And the GI50 [3]?
A: The GI50 was > 100 µM (inactive).

Q: What about the GI50 [4] of the same molecule?
A: The GI50 was > 100 µM (inactive).

Q: What about the GI50 [5] of the same molecule?
A: The GI50 was > 100 µM (inactive).

Q: What about the GI50 [6] of the same molecule?
A: Its GI50 is > 100 µM (inactive).

Q: And the GI50 [7]?
A: Its GI50 is > 100 µM (inactive).

Q: What about the GI50 [8] of the same molecule?
A: Its GI50 is > 100 µM (inactive).

Q: What about the GI50 [9] of the same molecule?
A: Its GI50 is > 100 µM (inactive).

Q: What about the GI50 [10] of the same molecule?
A: Its GI50 is > 100 µM (inactive).

Q: And the GI50 [11]?
A: Its GI50 is > 100 µM (inactive).

Q: And the GI50 [12]?
A: Its GI50 is > 100 µM (inactive).

Q: And the GI50 [13]?
A: Its GI50 is 30.3 µM (inactive).

Q: What about the GI50 [14] of the same molecule?
A: The GI50 was > 100 µM (inactive).

Q: What about the GI50 [15] of the same molecule?
A: Its GI50 is > 100 µM (inactive).

Q: And the GI50 [16]?
A: The GI50 was > 100 µM (inactive).

Q: And the GI50 [17]?
A: The GI50 was > 100 µM (inactive).

Q: What about the GI50 [18] of the same molecule?
A: The GI50 was > 100 µM (inactive).

Q: And the GI50 [19]?
A: The GI50 was > 100 µM (inactive).

Q: And the GI50 [20]?
A: Its GI50 is > 100 µM (inactive).

Q: [O-]c1c2cc(-[n+]3c(-c4ccccc4)cc(-c4ccccc4)cc3-c3ccccc3)cc1CO[C@@H](c1ccccc1)[C@H](c1ccccc1)OCCOCCO[C@@H](c1ccccc1)[C@H](c1ccccc1)OC2 was tested. Which GI50 [1] did it give?
A: The GI50 was 0.0489 µM (active).

Q: And the GI50 [2]?
A: Its GI50 is 0.0577 µM (active).

Q: What about the GI50 [3] of the same molecule?
A: The GI50 was 0.104 µM (active).

Q: And the GI50 [4]?
A: The GI50 was 0.0426 µM (active).

Q: What about the GI50 [5] of the same molecule?
A: Its GI50 is 0.0857 µM (active).

Q: And the GI50 [6]?
A: The GI50 was 0.0444 µM (active).

Q: And the GI50 [7]?
A: Its GI50 is 0.0397 µM (active).

Q: And the GI50 [8]?
A: The GI50 was 0.0719 µM (active).

Q: What about the GI50 [9] of the same molecule?
A: Its GI50 is 0.107 µM (active).

Q: What about the GI50 [10] of the same molecule?
A: Its GI50 is 0.5 µM (active).

Q: And the GI50 [11]?
A: Its GI50 is 0.284 µM (active).

Q: And the GI50 [12]?
A: The GI50 was 0.0284 µM (active).

Q: And the GI50 [13]?
A: Its GI50 is 0.048 µM (active).

Q: And the GI50 [14]?
A: The GI50 was 0.049 µM (active).

Q: What about the GI50 [15] of the same molecule?
A: Its GI50 is 0.039 µM (active).

Q: What about the GI50 [16] of the same molecule?
A: Its GI50 is 0.0356 µM (active).

Q: What about the GI50 [17] of the same molecule?
A: Its GI50 is 0.0324 µM (active).

Q: What about the GI50 [18] of the same molecule?
A: The GI50 was 0.0562 µM (active).

Q: And the GI50 [19]?
A: Its GI50 is 0.0574 µM (active).

Q: And the GI50 [20]?
A: Its GI50 is 0.0635 µM (active).
